{
  "source": "patent US10870647B2",
  "about": "“Imidazopyridine derivative, method for preparing same, and pharmaceutical composition containing same as active ingredient for preventing or treating cancer” (DAEGU-GYEONGBUK MEDICAL INNOVATION FOUNDATION, priority 2016, dated 2020)",
  "assay_in_all_cases": "Kinase selectivity, scanMAX Kinase assay panel (DiscoverX), % control at 1 uM",
  "assay_type_in_all_cases": "binding",
  "key": {"[1]": {"biological_target": "T1, scanMAX Kinase assay panel (Homo sapiens, UniProt O60285)", "T1 construct": "purchased DiscoverX", "T1 sequence (O60285 1-661)": "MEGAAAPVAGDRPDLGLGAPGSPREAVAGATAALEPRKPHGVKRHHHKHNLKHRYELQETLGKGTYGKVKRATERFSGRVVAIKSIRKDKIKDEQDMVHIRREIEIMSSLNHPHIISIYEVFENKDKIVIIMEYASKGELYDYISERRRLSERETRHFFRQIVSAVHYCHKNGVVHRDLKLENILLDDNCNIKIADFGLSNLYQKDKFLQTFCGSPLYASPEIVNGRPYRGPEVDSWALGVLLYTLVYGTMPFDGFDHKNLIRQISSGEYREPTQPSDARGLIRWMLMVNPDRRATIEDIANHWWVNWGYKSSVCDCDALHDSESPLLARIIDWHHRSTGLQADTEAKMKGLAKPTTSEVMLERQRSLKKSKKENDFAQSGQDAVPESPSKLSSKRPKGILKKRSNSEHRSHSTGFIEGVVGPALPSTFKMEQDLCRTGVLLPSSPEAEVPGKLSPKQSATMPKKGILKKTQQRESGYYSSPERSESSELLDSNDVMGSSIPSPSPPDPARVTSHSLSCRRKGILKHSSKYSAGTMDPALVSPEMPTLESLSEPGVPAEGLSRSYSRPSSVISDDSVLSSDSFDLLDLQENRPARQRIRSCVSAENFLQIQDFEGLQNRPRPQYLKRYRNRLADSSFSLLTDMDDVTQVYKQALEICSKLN", "settings": "ARK5; 1 uM; read-out: Percent Control (%)", "in_short": "(§1)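 Each kinase was first exposed to the test compound at 1 uM in DMSO. Signal was then normalised to positive and negative controls to give % control. Finally, any enzyme showing <35% control was judged inhibited.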"}, "[2]": {"biological_target": "T2, scanMAX Kinase assay panel (Homo sapiens, UniProt P00533)", "T2 construct": "purchased DiscoverX", "T2 sequence (P00533 25-1210)": "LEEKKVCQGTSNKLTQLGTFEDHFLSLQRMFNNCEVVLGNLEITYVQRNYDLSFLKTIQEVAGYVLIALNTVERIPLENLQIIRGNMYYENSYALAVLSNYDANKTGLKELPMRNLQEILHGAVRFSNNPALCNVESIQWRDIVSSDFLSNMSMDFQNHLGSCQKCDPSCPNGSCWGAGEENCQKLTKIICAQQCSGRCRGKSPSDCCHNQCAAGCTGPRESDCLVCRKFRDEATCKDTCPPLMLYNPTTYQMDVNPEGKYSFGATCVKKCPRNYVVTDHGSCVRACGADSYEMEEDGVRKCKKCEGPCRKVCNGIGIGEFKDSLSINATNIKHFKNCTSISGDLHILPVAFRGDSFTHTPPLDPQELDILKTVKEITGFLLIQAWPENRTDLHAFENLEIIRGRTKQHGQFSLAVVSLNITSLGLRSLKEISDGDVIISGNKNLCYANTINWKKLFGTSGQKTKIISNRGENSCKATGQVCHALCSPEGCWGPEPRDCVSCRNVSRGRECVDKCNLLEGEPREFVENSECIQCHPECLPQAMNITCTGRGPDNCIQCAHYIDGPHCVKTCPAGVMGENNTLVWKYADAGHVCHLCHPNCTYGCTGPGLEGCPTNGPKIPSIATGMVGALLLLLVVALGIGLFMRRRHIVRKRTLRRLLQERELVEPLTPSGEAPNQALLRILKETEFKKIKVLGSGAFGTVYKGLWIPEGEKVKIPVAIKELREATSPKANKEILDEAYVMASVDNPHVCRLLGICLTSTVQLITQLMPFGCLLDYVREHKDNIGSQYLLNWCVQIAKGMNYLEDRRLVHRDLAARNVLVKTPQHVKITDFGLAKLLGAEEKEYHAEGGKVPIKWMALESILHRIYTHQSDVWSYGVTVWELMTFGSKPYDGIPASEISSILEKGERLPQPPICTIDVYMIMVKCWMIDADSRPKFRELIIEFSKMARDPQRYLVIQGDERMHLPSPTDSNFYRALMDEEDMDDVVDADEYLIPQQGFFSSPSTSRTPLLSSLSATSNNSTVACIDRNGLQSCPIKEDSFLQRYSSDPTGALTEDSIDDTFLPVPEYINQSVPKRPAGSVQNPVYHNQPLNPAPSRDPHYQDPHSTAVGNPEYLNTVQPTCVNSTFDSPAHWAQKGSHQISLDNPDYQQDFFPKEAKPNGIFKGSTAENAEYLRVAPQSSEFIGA", "settings": "EGFR; 1 uM; read-out: Percent Control (%)", "in_short": "as §1"}, "[3]": {"biological_target": "T3, scanMAX Kinase assay panel (Homo sapiens, UniProt P0C264)", "T3 construct": "purchased DiscoverX", "T3 sequence (P0C264 1-359)": "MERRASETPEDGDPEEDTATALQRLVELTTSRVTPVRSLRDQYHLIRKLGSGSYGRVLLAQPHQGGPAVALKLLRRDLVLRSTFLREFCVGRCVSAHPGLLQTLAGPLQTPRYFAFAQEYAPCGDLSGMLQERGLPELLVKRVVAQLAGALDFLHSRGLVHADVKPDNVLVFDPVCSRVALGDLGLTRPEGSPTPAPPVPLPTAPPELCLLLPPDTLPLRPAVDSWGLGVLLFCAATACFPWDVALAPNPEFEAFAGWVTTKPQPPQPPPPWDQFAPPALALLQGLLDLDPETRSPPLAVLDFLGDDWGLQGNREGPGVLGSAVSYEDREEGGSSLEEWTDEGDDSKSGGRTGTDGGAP", "settings": "SgK110; 1 uM; read-out: Percent Control (%)", "in_short": "as §1"}, "[4]": {"biological_target": "T4, scanMAX Kinase assay panel (Homo sapiens, UniProt P15056, V600E)", "T4 construct": "purchased DiscoverX", "T4 sequence (P15056 whole entry V600E)": "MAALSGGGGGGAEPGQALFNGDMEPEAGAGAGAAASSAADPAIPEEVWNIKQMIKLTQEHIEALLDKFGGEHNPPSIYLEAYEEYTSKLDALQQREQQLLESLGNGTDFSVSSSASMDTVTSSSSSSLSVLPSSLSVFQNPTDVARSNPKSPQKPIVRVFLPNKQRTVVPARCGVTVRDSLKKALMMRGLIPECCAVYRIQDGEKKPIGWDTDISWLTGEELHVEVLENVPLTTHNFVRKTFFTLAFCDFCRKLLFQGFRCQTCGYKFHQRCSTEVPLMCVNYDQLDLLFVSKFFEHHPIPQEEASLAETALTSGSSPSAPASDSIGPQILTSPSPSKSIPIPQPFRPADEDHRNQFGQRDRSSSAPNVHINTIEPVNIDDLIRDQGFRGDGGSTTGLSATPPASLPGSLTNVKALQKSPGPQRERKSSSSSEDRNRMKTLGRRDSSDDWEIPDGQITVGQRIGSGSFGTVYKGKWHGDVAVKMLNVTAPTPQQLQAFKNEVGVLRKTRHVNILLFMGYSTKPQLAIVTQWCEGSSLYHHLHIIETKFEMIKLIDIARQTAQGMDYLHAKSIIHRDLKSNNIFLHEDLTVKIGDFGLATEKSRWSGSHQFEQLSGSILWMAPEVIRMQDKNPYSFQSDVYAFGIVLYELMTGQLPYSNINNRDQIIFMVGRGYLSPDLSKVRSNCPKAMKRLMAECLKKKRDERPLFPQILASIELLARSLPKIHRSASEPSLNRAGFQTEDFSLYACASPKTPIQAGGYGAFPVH", "settings": "BRAF (V600E); 1 uM; read-out: Percent Control (%)", "in_short": "as §1"}, "[5]": {"biological_target": "T5, scanMAX Kinase assay panel (Homo sapiens, UniProt P24723)", "T5 construct": "purchased DiscoverX", "settings": "PRKCH; 1 uM; read-out: Percent Control (%)", "in_short": "as §1"}, "[6]": {"biological_target": "T6, scanMAX Kinase assay panel (Homo sapiens, UniProt P25098)", "T6 construct": "purchased DiscoverX", "T6 sequence (P25098 1-689)": "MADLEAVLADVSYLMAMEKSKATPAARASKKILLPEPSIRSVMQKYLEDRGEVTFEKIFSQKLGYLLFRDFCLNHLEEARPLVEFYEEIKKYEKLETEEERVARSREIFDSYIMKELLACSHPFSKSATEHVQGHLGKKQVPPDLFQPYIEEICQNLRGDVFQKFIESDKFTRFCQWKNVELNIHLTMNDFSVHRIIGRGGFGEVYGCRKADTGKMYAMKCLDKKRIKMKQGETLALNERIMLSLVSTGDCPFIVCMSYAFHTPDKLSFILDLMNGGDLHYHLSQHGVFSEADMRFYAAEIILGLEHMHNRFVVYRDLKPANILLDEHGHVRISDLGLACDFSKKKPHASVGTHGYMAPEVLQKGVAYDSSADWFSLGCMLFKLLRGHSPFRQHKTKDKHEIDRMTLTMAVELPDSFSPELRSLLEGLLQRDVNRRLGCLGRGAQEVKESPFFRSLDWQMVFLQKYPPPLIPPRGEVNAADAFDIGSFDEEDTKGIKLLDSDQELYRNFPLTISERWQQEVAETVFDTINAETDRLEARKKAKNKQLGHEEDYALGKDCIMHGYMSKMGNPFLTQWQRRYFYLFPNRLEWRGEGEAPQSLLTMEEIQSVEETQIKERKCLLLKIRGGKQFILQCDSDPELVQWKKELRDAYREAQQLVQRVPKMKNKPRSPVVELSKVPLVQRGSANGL", "settings": "GRK2; 1 uM; read-out: Percent Control (%)", "in_short": "as §1"}, "[7]": {"biological_target": "T7, scanMAX Kinase assay panel (Homo sapiens, UniProt P29317)", "T7 construct": "purchased DiscoverX", "settings": "EPHA2; 1 uM; read-out: Percent Control (%)", "in_short": "as §1"}, "[8]": {"biological_target": "T8, scanMAX Kinase assay panel (Homo sapiens, UniProt P42336, I800L)", "T8 construct": "purchased DiscoverX", "T8 sequence (P42336 whole entry I800L)": "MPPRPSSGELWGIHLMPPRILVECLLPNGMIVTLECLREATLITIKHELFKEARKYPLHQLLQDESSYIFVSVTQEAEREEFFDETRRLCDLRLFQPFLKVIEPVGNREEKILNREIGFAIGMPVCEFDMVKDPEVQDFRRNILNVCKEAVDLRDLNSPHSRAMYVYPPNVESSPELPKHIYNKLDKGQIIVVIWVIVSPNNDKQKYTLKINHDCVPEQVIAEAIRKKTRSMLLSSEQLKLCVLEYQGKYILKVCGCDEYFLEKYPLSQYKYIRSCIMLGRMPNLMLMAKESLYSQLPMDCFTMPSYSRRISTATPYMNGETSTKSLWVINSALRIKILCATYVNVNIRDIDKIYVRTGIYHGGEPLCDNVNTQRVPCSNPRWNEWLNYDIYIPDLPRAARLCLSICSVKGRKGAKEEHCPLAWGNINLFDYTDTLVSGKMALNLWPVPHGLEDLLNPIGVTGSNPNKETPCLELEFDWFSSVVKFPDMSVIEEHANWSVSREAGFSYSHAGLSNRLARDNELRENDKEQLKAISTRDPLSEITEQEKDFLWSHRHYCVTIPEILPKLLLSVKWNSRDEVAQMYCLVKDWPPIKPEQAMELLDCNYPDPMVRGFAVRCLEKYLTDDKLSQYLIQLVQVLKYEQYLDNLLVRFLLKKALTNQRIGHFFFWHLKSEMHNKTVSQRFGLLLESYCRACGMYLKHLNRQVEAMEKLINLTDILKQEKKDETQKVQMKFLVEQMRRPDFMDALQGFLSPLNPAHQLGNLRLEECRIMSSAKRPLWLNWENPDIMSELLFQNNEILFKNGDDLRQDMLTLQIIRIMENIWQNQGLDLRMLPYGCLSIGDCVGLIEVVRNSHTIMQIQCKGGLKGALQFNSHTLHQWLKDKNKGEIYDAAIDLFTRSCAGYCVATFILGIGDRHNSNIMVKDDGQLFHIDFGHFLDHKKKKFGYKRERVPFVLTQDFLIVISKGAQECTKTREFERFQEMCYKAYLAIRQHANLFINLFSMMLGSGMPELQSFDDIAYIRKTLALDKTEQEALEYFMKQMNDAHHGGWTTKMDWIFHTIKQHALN", "settings": "PIK3CA (I800L); 1 uM; read-out: Percent Control (%)", "in_short": "as §1"}, "[9]": {"biological_target": "T9, scanMAX Kinase assay panel (Homo sapiens, UniProt Q14012)", "T9 construct": "purchased DiscoverX", "T9 sequence (Q14012 whole entry)": "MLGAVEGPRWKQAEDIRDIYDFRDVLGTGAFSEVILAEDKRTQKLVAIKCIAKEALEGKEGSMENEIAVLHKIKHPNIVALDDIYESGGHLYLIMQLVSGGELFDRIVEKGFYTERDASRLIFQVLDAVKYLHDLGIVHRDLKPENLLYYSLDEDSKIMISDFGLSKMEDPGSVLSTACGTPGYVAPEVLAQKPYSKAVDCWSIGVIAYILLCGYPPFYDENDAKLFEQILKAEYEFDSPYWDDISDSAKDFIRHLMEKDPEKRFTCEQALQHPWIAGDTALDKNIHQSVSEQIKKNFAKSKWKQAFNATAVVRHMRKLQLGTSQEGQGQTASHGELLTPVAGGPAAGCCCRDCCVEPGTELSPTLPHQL", "settings": "CAMK1; 1 uM; read-out: Percent Control (%)", "in_short": "as §1"}, "[10]": {"biological_target": "T10, scanMAX Kinase assay panel (Homo sapiens, UniProt Q16659)", "T10 construct": "purchased DiscoverX", "T10 sequence (Q16659 whole entry)": "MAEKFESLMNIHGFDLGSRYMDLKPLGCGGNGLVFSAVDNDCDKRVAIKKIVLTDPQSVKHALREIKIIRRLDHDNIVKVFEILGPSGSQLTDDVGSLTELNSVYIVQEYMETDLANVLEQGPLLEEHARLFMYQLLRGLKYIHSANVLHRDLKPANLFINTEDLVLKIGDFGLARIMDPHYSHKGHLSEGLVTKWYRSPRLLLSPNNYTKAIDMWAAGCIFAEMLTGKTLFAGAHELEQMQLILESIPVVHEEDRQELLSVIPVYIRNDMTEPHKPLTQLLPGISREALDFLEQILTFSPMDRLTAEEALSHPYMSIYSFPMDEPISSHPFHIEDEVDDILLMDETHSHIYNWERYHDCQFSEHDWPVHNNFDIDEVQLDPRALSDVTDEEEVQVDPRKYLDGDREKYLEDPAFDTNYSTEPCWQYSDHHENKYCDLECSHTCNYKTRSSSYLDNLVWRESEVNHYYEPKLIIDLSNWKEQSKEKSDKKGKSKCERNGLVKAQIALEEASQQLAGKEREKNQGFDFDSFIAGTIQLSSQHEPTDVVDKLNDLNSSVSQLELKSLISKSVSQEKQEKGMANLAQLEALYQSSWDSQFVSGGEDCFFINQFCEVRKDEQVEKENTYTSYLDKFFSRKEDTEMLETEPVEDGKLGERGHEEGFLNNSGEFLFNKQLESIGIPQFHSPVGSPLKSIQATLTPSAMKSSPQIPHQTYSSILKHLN", "settings": "ERK3; 1 uM; read-out: Percent Control (%)", "in_short": "as §1"}, "[11]": {"biological_target": "T11, scanMAX Kinase assay panel (Homo sapiens, UniProt Q8WU08)", "T11 construct": "purchased DiscoverX", "T11 sequence (Q8WU08 whole entry)": "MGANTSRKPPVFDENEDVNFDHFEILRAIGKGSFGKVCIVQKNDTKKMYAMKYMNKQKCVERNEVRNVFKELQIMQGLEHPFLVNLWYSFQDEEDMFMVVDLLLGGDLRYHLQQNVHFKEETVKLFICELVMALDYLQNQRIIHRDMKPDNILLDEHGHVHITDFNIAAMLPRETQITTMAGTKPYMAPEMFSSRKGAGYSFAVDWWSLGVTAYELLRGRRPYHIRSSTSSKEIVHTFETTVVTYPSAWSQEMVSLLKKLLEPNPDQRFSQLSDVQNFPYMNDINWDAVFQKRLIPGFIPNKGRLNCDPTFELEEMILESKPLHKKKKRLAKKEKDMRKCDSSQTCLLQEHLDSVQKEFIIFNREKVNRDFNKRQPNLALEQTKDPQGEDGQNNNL", "settings": "YANK1; 1 uM; read-out: Percent Control (%)", "in_short": "as §1"}, "[12]": {"biological_target": "T12, scanMAX Kinase assay panel (Homo sapiens, UniProt Q99755)", "T12 construct": "purchased DiscoverX", "T12 sequence (Q99755 whole entry)": "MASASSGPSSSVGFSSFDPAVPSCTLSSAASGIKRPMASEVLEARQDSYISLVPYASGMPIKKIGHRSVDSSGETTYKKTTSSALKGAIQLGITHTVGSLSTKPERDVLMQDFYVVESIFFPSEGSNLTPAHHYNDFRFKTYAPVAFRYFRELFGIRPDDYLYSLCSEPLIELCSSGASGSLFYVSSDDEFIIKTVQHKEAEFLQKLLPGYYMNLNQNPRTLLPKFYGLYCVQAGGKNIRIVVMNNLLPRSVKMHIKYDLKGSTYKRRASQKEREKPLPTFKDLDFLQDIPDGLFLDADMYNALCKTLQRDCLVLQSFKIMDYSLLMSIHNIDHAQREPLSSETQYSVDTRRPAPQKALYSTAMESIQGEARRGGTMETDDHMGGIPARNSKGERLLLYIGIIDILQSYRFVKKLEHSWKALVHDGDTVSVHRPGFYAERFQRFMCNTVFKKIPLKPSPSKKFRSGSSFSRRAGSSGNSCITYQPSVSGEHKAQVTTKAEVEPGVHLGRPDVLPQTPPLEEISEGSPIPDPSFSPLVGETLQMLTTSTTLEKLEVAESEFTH", "settings": "PIP5K1A; 1 uM; read-out: Percent Control (%)", "in_short": "as §1"}},
  "data": [
    {"smiles": "Cc1ccc(NC(=O)C2(C(=O)Nc3ccc(F)cc3)CC2)cc1C#Cc1cnc2c(Nc3cnn(C(C)C)c3)cccn12", "note": "[Example 78]", "values": [
      {"measurement": "remaining binding at 1 µM", "setting": "[1]", "result": 94, "unit": "%"},
      {"measurement": "remaining binding at 1 µM", "setting": "[2]", "result": 85, "unit": "%"},
      {"measurement": "remaining binding at 1 µM", "setting": "[3]", "result": 100, "unit": "%"},
      {"measurement": "remaining binding at 1 µM", "setting": "[4]", "result": 100, "unit": "%"},
      {"measurement": "remaining binding at 1 µM", "setting": "[5]", "result": 100, "unit": "%"},
      {"measurement": "remaining binding at 1 µM", "setting": "[6]", "result": 96, "unit": "%"},
      {"measurement": "remaining binding at 1 µM", "setting": "[7]", "result": 91, "unit": "%"},
      {"measurement": "remaining binding at 1 µM", "setting": "[8]", "result": 92, "unit": "%"},
      {"measurement": "remaining binding at 1 µM", "setting": "[9]", "result": 100, "unit": "%"},
      {"measurement": "remaining binding at 1 µM", "setting": "[10]", "result": 100, "unit": "%"},
      {"measurement": "remaining binding at 1 µM", "setting": "[11]", "result": 84, "unit": "%"},
      {"measurement": "remaining binding at 1 µM", "setting": "[12]", "result": 98, "unit": "%"}
    ]},
    {"smiles": "Cc1cn(-c2cc(NC(=O)c3ccc(C)c(C#Cc4cnc5c(Nc6cnn(C)c6)cccn45)c3)cc(C(F)(F)F)c2)cn1", "note": "[Example 12, 4-methyl-N-(3-(4-methyl-1H-imidazol-1-yl)-5-(trifluoromethyl)phenyl)-3-((8-((1-methyl-1H-pyrazol-4-yl)amino)imidazo[1,2-a]pyridin-3-yl)ethynyl)benzamide]", "values": [
      {"measurement": "remaining binding at 1 µM", "setting": "[1]", "result": 100, "unit": "%"},
      {"measurement": "remaining binding at 1 µM", "setting": "[2]", "result": 28, "unit": "%"},
      {"measurement": "remaining binding at 1 µM", "setting": "[3]", "result": 81, "unit": "%"},
      {"measurement": "remaining binding at 1 µM", "setting": "[4]", "result": 56, "unit": "%"},
      {"measurement": "remaining binding at 1 µM", "setting": "[5]", "result": 100, "unit": "%"},
      {"measurement": "remaining binding at 1 µM", "setting": "[6]", "result": 100, "unit": "%"},
      {"measurement": "remaining binding at 1 µM", "setting": "[7]", "result": 9, "unit": "%"},
      {"measurement": "remaining binding at 1 µM", "setting": "[8]", "result": 75, "unit": "%"},
      {"measurement": "remaining binding at 1 µM", "setting": "[9]", "result": 73, "unit": "%"},
      {"measurement": "remaining binding at 1 µM", "setting": "[10]", "result": 94, "unit": "%"},
      {"measurement": "remaining binding at 1 µM", "setting": "[11]", "result": 98, "unit": "%"},
      {"measurement": "remaining binding at 1 µM", "setting": "[12]", "result": 84, "unit": "%"}
    ]},
    {"smiles": "Cc1ccc(C(=O)Nc2ccc(CN3CCN(C)CC3)c(C(F)(F)F)c2)cc1C#Cc1cnc2c(Nc3cnn(C)c3)cccn12", "note": "[Example 1, 4-methyl-3-((8-((1-methyl-1H-pyrazol-4-yl)amino)imidazo[1,2-a]pyridin-3-yl)ethynyl)-N-(4-((4-methylpiperazin-1-yl)methyl)-3-(trifluoromethyl)phenyl)benzamide]", "values": [
      {"measurement": "remaining binding at 1 µM", "setting": "[1]", "result": 99, "unit": "%"},
      {"measurement": "remaining binding at 1 µM", "setting": "[2]", "result": 3, "unit": "%"},
      {"measurement": "remaining binding at 1 µM", "setting": "[3]", "result": 95, "unit": "%"},
      {"measurement": "remaining binding at 1 µM", "setting": "[4]", "result": 5, "unit": "%"},
      {"measurement": "remaining binding at 1 µM", "setting": "[5]", "result": 100, "unit": "%"},
      {"measurement": "remaining binding at 1 µM", "setting": "[6]", "result": 84, "unit": "%"},
      {"measurement": "remaining binding at 1 µM", "setting": "[7]", "result": 2, "unit": "%"},
      {"measurement": "remaining binding at 1 µM", "setting": "[8]", "result": 80, "unit": "%"},
      {"measurement": "remaining binding at 1 µM", "setting": "[9]", "result": 35, "unit": "%"},
      {"measurement": "remaining binding at 1 µM", "setting": "[10]", "result": 100, "unit": "%"},
      {"measurement": "remaining binding at 1 µM", "setting": "[11]", "result": 69, "unit": "%"},
      {"measurement": "remaining binding at 1 µM", "setting": "[12]", "result": 94, "unit": "%"}
    ]}
  ]
}
